Measurements reported in patent US6639078B1, “Assays for ligands for nuclear receptors” (SmithKline Beecham Corporation, priority 1998, dated 2003).
Read-outs that look alike come from different tables or passages of the source.

Legend:
human FXR LBD [1] = target: T1, human FXR LBD (Homo sapiens, UniProt Q96RI1); test: FRET ligand-sensing assay in the presence of 50 μM CDCA (competition with CDCA for FXR binding)
T1 sequence (Q96RI1 222-472 isoform Q96RI1-2): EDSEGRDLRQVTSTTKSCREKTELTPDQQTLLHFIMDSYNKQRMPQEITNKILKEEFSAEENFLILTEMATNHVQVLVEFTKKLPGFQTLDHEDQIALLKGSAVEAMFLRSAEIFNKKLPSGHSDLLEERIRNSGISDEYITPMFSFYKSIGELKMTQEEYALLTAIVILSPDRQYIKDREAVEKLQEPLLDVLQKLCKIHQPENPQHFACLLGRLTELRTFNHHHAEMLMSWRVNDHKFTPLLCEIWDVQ
Excerpt: Data are expressed as the means ± SD derived from three independent experiments.
Data were collected using a Wallac Victor™ fluorescence reader in a time-resolved mode.

human FXR LBD [2] = target: T1, human FXR LBD; test: FRET ligand-sensing assay: SRC1 peptide binding to FXR LBD; conditions: 100 μM compound (FIG. 3A/4a)
full-length human FXR = target: T2, full-length human FXR (Homo sapiens, UniProt Q96RI1); test: CAT reporter assay in CV-1 cells transfected with FXR, human RXRα and FXREhsp27-tk-CAT; conditions: 100 μM bile acid or farnesol, 10 μM steroid or TTNPB
T2 sequence (Q96RI1 1-472 isoform Q96RI1-2): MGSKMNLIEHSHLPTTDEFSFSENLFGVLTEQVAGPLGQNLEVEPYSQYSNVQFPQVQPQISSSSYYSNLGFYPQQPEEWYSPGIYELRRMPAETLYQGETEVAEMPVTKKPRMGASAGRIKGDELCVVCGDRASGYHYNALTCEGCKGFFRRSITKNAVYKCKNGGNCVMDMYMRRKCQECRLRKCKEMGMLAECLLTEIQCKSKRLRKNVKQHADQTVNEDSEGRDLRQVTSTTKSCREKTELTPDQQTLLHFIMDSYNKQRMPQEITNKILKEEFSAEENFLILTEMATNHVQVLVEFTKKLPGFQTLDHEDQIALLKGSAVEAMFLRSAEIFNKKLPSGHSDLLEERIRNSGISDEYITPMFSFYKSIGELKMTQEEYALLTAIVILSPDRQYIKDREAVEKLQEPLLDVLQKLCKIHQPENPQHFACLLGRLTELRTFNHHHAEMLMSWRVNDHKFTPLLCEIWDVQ
T2 sequence (P19793 1-462 partner): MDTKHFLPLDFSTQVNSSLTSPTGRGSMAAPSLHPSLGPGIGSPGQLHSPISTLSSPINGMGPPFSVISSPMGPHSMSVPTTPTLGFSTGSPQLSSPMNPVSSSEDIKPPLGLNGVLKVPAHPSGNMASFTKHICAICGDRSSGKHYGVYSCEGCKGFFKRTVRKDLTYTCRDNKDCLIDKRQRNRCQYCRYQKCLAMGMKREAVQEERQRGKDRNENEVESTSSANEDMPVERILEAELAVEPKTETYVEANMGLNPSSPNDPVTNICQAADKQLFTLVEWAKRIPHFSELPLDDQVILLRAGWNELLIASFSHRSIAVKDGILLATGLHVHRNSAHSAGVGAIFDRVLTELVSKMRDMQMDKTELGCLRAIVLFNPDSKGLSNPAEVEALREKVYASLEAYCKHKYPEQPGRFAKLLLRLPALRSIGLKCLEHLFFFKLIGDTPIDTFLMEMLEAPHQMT
Excerpt: CV-1 cells were transiently transfected with an expression plasmid encoding the human FXR and a reporter construct containing the hsp27-EcRE, a response element that is known to be activated by the FXR/RXR heterodimer.

| Compound | effect on interaction between FXR LBD and SRC1 peptide (human FXR LBD [2]) | activation of full-length human FXR (full-length human FXR) | other results |
| --- | --- | --- | --- |
| C[C@H](CCC(=O)O)[C@H]1CC[C@H]2[C@@H]3CC[C@@H]4C[C@H](O)CC[C@]4(C)[C@H]3C[C@H](O)[C@]12C [DCA, deoxycholic acid] | – | – | IC50 (human FXR LBD [1]): 100 µM |
| C[C@H](CCC(=O)O)[C@H]1CC[C@H]2[C@@H]3[C@H](O)C[C@@H]4C[C@H](O)CC[C@]4(C)[C@H]3C[C@H](O)[C@]12C [CA, cholic acid] | no effect | inactive | – |
| muricholic acid [MCA] | – | – | IC50 (human FXR LBD [1]; read-out: half-maximal inhibitor concentration IC50 in the cell-free ligand sensing assay, in the presence of 50 μM CDCA): > 1000 µM |
| C[C@H](CCC(=O)O)[C@H]1CC[C@H]2[C@@H]3[C@H](O)[C@@H](O)[C@@H]4C[C@H](O)CC[C@]4(C)[C@H]3CC[C@]12C [α-muricholic acid] | – | no activation | – |
| C/C(=C\c1ccc(C(=O)O)cc1)c1ccc2c(c1)C(C)(C)CCC2(C)C [TTNPB] | did not promote interactions | activate FXR | effect on CDCA-FXR-SRC1 complex (fluorescence signal) (human FXR LBD [1]; in the presence of 50 μM CDCA): disrupted the CDCA-FXR-SRC1 complex in a dose-dependent fashion |
| C[C@H](CCC(=O)O)[C@H]1CC[C@H]2[C@@H]3[C@@H](O)[C@@H](O)[C@@H]4C[C@H](O)CC[C@]4(C)[C@H]3CC[C@]12C [β-muricholic acid] | – | no activation | – |
